# Measured values as given in patent EP0093484A2, “Antibacterial monic acid derivatives” (BEECHAM GROUP PLC, priority 1982, dated 1983).
# Assays:
# [1] = system: Strep. pyogenes R80/421-A; assay: Human bacteria, MIC by serial dilution in nutrient agar; type: cell-based; details: nutrient agar with 5% chocolated horse blood, 18 hours at 37°C
# [2] = system: Pasteurella multocida 1633; assay: as above; type: cell-based; details: nutrient agar with 5% chocolated horse blood, 18 hours at 37°C
# M. gallisepticum S6 = assay: Anti-mycoplasmal activity, MIC in Friis broth agarose; type: cell-based; details: Friis broth solidified with 0.9% agarose, 6 days incubation at 37°C
# [3] = system: Haemophilus influenzae Q1; assay: Human bacteria, MIC by serial dilution in nutrient agar; type: cell-based; details: nutrient agar with 5% chocolated horse blood, 18 hours at 37°C
# Strep. uberis SPU1 = assay: Veterinary bacteria, MIC by two fold serial dilution in agar; details: Strep. uberis SPU1; Diagnostic Sensitivity Test Agar; 18 hours at 37°C
# Description: (§1) The activity of the compounds of the Examples against various organisms important in veterinary infections was determined using two fold serial dilutions in Diagnostic Sensitivity Test Agar inoculated with 10^4 organisms.
# E. coli NCTC 10418 [4] = assay: as above; details: E. coli NCTC 10418 (veterinary panel); Diagnostic Sensitivity Test Agar; 18 hours at 37°C
# Description: as §1
# M. hyorhinis ATCC 25021 = assay: Anti-mycoplasmal activity, MIC in Friis broth agarose; type: cell-based; details: Friis broth solidified with 0.9% agarose, 6 days incubation at 37°C
# Staph. aureus Russell = assay: Human bacteria, MIC by serial dilution in nutrient agar; type: cell-based; details: nutrient agar with 5% chocolated horse blood, 18 hours at 37°C
# M. suipneumoniae MS16 = assay: Anti-mycoplasmal activity, MIC in Friis broth agarose; type: cell-based; details: Friis broth solidified with 0.9% agarose, 6 days incubation at 37°C
# [5] = system: M. suipneumoniae J2206/183b; assay: as above; type: cell-based; details: Friis broth solidified with 0.9% agarose, 6 days incubation at 37°C
# M. dispar NCTC 10125 = assay: as above; type: cell-based; details: Friis broth solidified with 0.9% agarose, 6 days incubation at 37°C
# Strep. faecalis I = assay: Human bacteria, MIC by serial dilution in nutrient agar; type: cell-based; details: nutrient agar with 5% chocolated horse blood, 18 hours at 37°C
# [6] = system: Strep. suis (group D) SPS11; assay: Veterinary bacteria, MIC by two fold serial dilution in agar; details: Strep. suis (group D) SPS11; Diagnostic Sensitivity Test Agar; 18 hours at 37°C
# Description: as §1
# M. suipneumoniae LABER = assay: Anti-mycoplasmal activity, MIC in Friis broth agarose; type: cell-based; details: Friis broth solidified with 0.9% agarose, 6 days incubation at 37°C
# Strep. agalactiae SPA1 = assay: Veterinary bacteria, MIC by two fold serial dilution in agar; details: Strep. agalactiae SPA1; Diagnostic Sensitivity Test Agar; 18 hours at 37°C
# Description: as §1
# [7] = system: Corynebacterium pyogenes CY1; assay: as above; details: Corynebacterium pyogenes CY1; Diagnostic Sensitivity Test Agar; 18 hours at 37°C
# Description: as §1
# M. suipneumoniae JF 435 = assay: Anti-mycoplasmal activity, MIC in Friis broth agarose; type: cell-based; details: Friis broth solidified with 0.9% agarose, 6 days incubation at 37°C
# Strep. agalactiae 2788-B = assay: Human bacteria, MIC by serial dilution in nutrient agar; type: cell-based; details: nutrient agar with 5% chocolated horse blood, 18 hours at 37°C
# E. coli ESS = assay: as above; type: cell-based; details: nutrient agar with 5% chocolated horse blood, 18 hours at 37°C
# Past. multocida PA1 = assay: Veterinary bacteria, MIC by two fold serial dilution in agar; details: Past. multocida PA1; Diagnostic Sensitivity Test Agar; 18 hours at 37°C
# Description: as §1
# Bord. bronchiseptica BO9 = assay: as above; details: Bord. bronchiseptica BO9; Diagnostic Sensitivity Test Agar; 18 hours at 37°C
# Description: as §1
# K. aerogenes A = assay: Human bacteria, MIC by serial dilution in nutrient agar; type: cell-based; details: nutrient agar with 5% chocolated horse blood, 18 hours at 37°C
# S. dublin S7 = assay: Veterinary bacteria, MIC by two fold serial dilution in agar; details: S. dublin S7; Diagnostic Sensitivity Test Agar; 18 hours at 37°C
# Description: as §1
# [8] = system: M. suipneumoniae ATCC 25095; assay: Anti-mycoplasmal activity, MIC in Friis broth agarose; type: cell-based; details: Friis broth solidified with 0.9% agarose, 6 days incubation at 37°C
# [9] = system: M. suipneumoniae NCTC 10110; assay: as above; type: cell-based; details: Friis broth solidified with 0.9% agarose, 6 days incubation at 37°C
# Sarcina lutea 8340 = assay: Human bacteria, MIC by serial dilution in nutrient agar; type: cell-based; details: nutrient agar with 5% chocolated horse blood, 18 hours at 37°C
# Strep. pneumoniae CN33 = assay: as above; type: cell-based; details: nutrient agar with 5% chocolated horse blood, 18 hours at 37°C
# M. bovis NCTC 10131 = assay: microbe, parasite or virus in culture; type: cell-based; details: M. bovis NCTC 10131; Friis broth solidified with 0.9% agarose; 6 days incubation at 37°C
# [10] = system: Neisseria catarrhalis 1502; assay: Human bacteria, MIC by serial dilution in nutrient agar; type: cell-based; details: nutrient agar with 5% chocolated horse blood, 18 hours at 37°C
# [11] = system: Staph. aureus 152 (pen. sens.); assay: Veterinary bacteria, MIC by two fold serial dilution in agar; details: Staph. aureus 152 (pen. sens.); Diagnostic Sensitivity Test Agar; 18 hours at 37°C
# Description: as §1
# Ps. aeruginosa 10662 = assay: Human bacteria, MIC by serial dilution in nutrient agar; type: cell-based; details: nutrient agar with 5% chocolated horse blood, 18 hours at 37°C
# E. coli NCTC 10418 [12] = assay: as above; type: cell-based; details: E. coli NCTC 10418 (human panel); nutrient agar with 5% chocolated horse blood; 18 hours at 37°C
# Past. multocida PA2 = assay: Veterinary bacteria, MIC by two fold serial dilution in agar; details: Past. multocida PA2; Diagnostic Sensitivity Test Agar; 18 hours at 37°C
# Description: as §1
# S. typhimurium S18 = assay: as above; details: S. typhimurium S18; Diagnostic Sensitivity Test Agar; 18 hours at 37°C
# Description: as §1
# [13] = system: Staph. aureus B4 (pen. resistant); assay: as above; details: Staph. aureus B4 (pen. resistant); Diagnostic Sensitivity Test Agar; 18 hours at 37°C
# Description: as §1
# Staph. aureus Oxford [14] = assay: Human bacteria, MIC by serial dilution in nutrient agar; type: cell-based; details: Staph. aureus Oxford (human panel); nutrient agar with 5% chocolated horse blood; 18 hours at 37°C
# [15] = system: M. bovigenitalium ATCC 14173; assay: Anti-mycoplasmal activity, MIC in Friis broth agarose; type: cell-based; details: Friis broth solidified with 0.9% agarose, 6 days incubation at 37°C
# Strep. spp. 64/848-C = assay: Human bacteria, MIC by serial dilution in nutrient agar; type: cell-based; details: nutrient agar with 5% chocolated horse blood, 18 hours at 37°C
# Staph. aureus Oxford [16] = assay: Veterinary bacteria, MIC by two fold serial dilution in agar; details: Staph. aureus Oxford (veterinary panel); Diagnostic Sensitivity Test Agar; 18 hours at 37°C
# Description: as §1
substance,measurement,setting,value
m-Methylthiobenzyl monate A [Example 5],MIC,[1],0.1 µg/mL
same,MIC,[2],10 µg/mL
same,MIC,M. gallisepticum S6,5.0 µg/mL
same,MIC,[3],1.0 µg/mL
same,MIC,Strep. uberis SPU1,.07 µg/mL
same,MIC,E. coli NCTC 10418 [4],>80 µg/mL
same,MIC,M. hyorhinis ATCC 25021,0.25 µg/mL
same,MIC,Staph. aureus Russell,1.0 µg/mL
same,MIC,M. suipneumoniae MS16,0.25 µg/mL
same,MIC,[5],0.5 µg/mL
same,MIC,M. dispar NCTC 10125,0.1 µg/mL
same,MIC,Strep. faecalis I,100 µg/mL
same,MIC,[6],1.25 µg/mL
same,MIC,M. suipneumoniae LABER,0.25 µg/mL
same,MIC,Strep. agalactiae SPA1,.312 µg/mL
same,MIC,[7],>80 µg/mL
same,MIC,M. suipneumoniae JF 435,0.5 µg/mL
same,MIC,Strep. agalactiae 2788-B,1.0 µg/mL
same,MIC,E. coli ESS,5.0 µg/mL
same,MIC,Past. multocida PA1,2.5 µg/mL
same,MIC,Bord. bronchiseptica BO9,2.5 µg/mL
same,MIC,K. aerogenes A,>100 µg/mL
same,MIC,S. dublin S7,>80 µg/mL
same,MIC,[8],0.5 µg/mL
same,MIC,[9],0.5 µg/mL
same,MIC,Sarcina lutea 8340,>100 µg/mL
same,MIC,Strep. pneumoniae CN33,1.0 µg/mL
same,MIC,M. bovis NCTC 10131,0.025 µg/mL
same,MIC,[10],0.5 µg/mL
same,MIC,[11],.156 µg/mL
same,MIC,Ps. aeruginosa 10662,>100 µg/mL
same,MIC,E. coli NCTC 10418 [12],>100 µg/mL
same,MIC,Past. multocida PA2,.625 µg/mL
same,MIC,S. typhimurium S18,>80 µg/mL
same,MIC,[13],.156 µg/mL
same,MIC,Staph. aureus Oxford [14],0.5 µg/mL
same,MIC,[15],0.025 µg/mL
same,MIC,Strep. spp. 64/848-C,1.0 µg/mL
same,MIC,Staph. aureus Oxford [16],.156 µg/mL
